{"source": "patent US11866450B2", "about": "“Modulators of Cystic Fibrosis Transmembrane Conductance regulator, pharmaceutical compositions, methods of treatment, and process for making the modulators” (priority 2018, dated 2024)", "biological_target": "CFTR-mediated chloride transport (Homo sapiens, UniProt P13569)", "sequence (P13569 whole entry, looked up)": "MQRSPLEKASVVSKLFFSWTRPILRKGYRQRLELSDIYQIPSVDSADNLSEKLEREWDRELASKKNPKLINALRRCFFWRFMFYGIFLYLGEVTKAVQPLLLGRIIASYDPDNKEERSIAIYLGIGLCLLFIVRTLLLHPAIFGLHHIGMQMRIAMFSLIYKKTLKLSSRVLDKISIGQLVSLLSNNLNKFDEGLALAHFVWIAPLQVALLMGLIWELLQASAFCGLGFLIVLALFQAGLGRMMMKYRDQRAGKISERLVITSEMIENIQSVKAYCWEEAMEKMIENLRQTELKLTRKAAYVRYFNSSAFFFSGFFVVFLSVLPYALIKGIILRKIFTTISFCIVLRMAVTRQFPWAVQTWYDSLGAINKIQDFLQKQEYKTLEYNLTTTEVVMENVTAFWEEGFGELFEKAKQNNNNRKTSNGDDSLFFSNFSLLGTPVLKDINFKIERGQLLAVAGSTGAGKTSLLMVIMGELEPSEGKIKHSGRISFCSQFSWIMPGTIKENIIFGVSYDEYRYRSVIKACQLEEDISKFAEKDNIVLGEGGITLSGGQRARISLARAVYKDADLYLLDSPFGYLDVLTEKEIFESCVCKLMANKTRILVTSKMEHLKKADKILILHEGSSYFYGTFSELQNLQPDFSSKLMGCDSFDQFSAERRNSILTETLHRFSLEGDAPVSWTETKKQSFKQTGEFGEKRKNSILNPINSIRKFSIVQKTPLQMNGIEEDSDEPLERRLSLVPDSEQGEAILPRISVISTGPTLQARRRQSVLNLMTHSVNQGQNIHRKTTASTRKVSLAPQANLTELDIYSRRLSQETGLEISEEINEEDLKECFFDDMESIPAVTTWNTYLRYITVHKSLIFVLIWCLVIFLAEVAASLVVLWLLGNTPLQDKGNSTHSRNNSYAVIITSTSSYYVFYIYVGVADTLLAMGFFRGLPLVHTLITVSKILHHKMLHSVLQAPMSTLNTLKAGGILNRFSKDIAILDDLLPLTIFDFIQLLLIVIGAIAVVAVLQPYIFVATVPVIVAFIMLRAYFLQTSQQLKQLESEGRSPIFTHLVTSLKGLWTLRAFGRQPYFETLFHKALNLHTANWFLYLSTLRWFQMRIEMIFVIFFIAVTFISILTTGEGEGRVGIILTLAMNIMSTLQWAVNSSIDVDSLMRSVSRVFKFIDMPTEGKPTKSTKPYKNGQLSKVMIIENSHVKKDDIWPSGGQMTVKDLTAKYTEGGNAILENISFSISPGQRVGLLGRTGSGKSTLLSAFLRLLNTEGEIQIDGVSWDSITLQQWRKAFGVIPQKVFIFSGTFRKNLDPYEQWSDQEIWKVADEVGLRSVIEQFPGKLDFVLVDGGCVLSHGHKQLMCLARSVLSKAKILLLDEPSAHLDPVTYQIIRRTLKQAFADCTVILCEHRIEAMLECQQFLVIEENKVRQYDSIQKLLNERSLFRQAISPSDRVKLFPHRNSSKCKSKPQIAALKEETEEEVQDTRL", "format": "cell-based", "conditions": "enteroid cells incubated with test compound 18-24 hours, acute 10 μM forskolin and 300 nM Compound III; for Max. Activity: % of chloride transport with 3 μM Compound A, 3 μM Compound II and 300 nM acute Compound III triple combination control", "summary_of_the_method": "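Human intestinal enteroid cells incubated with compound 18–24 h at 37° C., then membrane potential dye (FLIPR) read 15 min after chloride-free stimulation with 10 μM forskolin, 100 μM IBMX and 300 nM Compound III. AUC expressed as % of triple-combination control (3 μM Compound A, 3 μM Compound II, 300 nM Compound III).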", "data": [{"smiles": "CC1(C)C[C@H]2CCCCOc3ccc(cc3)S(=O)(=O)NC(=O)c3ccc(-n4ccc(OCCC5(C(F)(F)F)CC5)n4)nc3N1C2", "note": "(single isomer, unassigned) [Compound 96, 12,12-dimethyl-8-(3-{2-[1-(trifluoromethyl)cyclopropyl]ethoxy}-1H-pyrazol-1-yl)-19-oxa-2λ^6-thia-3,9,11-triazatetracyclo[18.2.2.111,14.05,10]pentacosa-1(22),5,7,9,20,23-hexaene-2,2,4-trione]", "values": [{"measurement": "EC50", "result": "> 3000", "unit": "nM"}, {"measurement": "Max. Activity", "result": "+ (+ is <30%)"}]}, {"smiles": "CC1(C)C[C@H]2CCn3ccc(n3)S(=O)(=O)NC(=O)c3ccc(-n4ccc(OCCCC5(C(F)(F)F)CC5)n4)nc3N1C2", "note": "(single isomer, unassigned) [Compound 278, 19,19-dimethyl-4-(3-{3-[1-(trifluoromethyl)cyclopropyl]propoxy}-1H-pyrazol-1-yl)-10λ^6-thia-1,3,9,14,21-pentaazatetracyclo[15.2.1.111,14.02,7]henicosa-2,4,6,11(21),12-pentaene-8,10,10-trione]", "values": [{"measurement": "EC50", "result": "> 3000", "unit": "nM"}, {"measurement": "Max. Activity", "result": "+ (+ is <30%)"}]}, {"smiles": "CC1(C)C[C@@H]2CN1c1nc(-n3ccc(OCCC4C5(CC5)C45CC5)n3)ccc1C(=O)NS(=O)(=O)c1cccc(n1)NCCO2", "note": "(single isomer, unassigned) [Compound 196, 8-[3-(2-{dispiro[2.0.2.1]heptan-7-yl}ethoxy)-1H-pyrazol-1-yl]-12,12-dimethyl-15-oxa-2λ^6-thia-3,9,11,18,23-pentaazatetracyclo[17.3.1.111,14.05,10]tetracosa-1(23),5(10),6,8,19,21-hexaene-2,2,4-trione]", "values": [{"measurement": "EC50", "result": "1000 to 3000", "unit": "nM"}, {"measurement": "Max. Activity", "result": "++ (++ is 30-60%)"}]}, {"smiles": "CC1(C)C[C@@H]2CCCNc3cccc(n3)S(=O)(=O)NC(=O)c3ccc(N4CC[C@H](OCC56CC7CC(CC(C7)C5)C6)C4=O)nc3N1C2", "note": "(single isomer, unassigned) [Compound 244]", "values": [{"measurement": "EC50", "result": "< 1000", "unit": "nM"}, {"measurement": "Max. Activity", "result": "++ (++ is 30-60%)"}]}, {"smiles": "CC1(C)C[C@@H]2CCCNc3cccc(n3)S(=O)(=O)NC(=O)c3ccc(N4CCC(OCCC5(C(F)(F)F)CC5)C4=O)nc3N1C2", "note": "(stereo partly drawn) [Compound 158, (14S)-12,12-Dimethyl-8-(2-oxo-3-{2-[1-(trifluoromethyl)cyclopropyl]ethoxy}pyrrolidin-1-yl)-2λ^6-thia-3,9,11,18,23-pentaazatetracyclo[17.3.1.111,14.05,10]tetracosa-1(22),5,7,9,19(23),20-hexaene-2,2,4-trione]", "values": [{"measurement": "EC50", "result": "< 1000", "unit": "nM"}, {"measurement": "Max. Activity", "result": "+++ (+++ is >60%)"}]}, {"smiles": "CC1(C)C[C@@H]2CN1c1nc(-n3ccc(OCCC4(C(F)(F)F)CC4)n3)ccc1C(=O)NS(=O)(=O)c1cccc(n1)NCCO2", "note": "(single isomer, unassigned) [Compound 74, 12,12-Dimethyl-8-(3-{2-[1-(trifluoromethyl)cyclopropyl]ethoxy}-1H-pyrazol-1-yl)-15-oxa-2λ^6-thia-3,9,11,18,23-pentaazatetracyclo[17.3.1.111,14.05,10]tetracosa-1(22),5(10),6,8,19(23),20-hexaene-2,2,4-trione]", "values": [{"measurement": "EC50", "result": "1000 to 3000", "unit": "nM"}, {"measurement": "Max. Activity", "result": "+ (+ is <30%)"}]}, {"smiles": "CC1(C)C[C@H]2CCCCc3ccc(cc3)S(=O)(=O)NC(=O)c3ccc(-n4ccc(OCCC5(C(F)(F)F)CC5)n4)nc3N1C2", "note": "(single isomer, unassigned) [Compound 55, 12,12-Dimethyl-8-(3-{2-[1-(trifluoromethyl)cyclopropyl]ethoxy}-1H-pyrazol-1-yl)-2λ^6-thia-3,9,11-triazatetracyclo[17.2.2.111,14.05,10]tetracosa-1(21),5,7,9,19,22-hexaene-2,2,4-trione]", "values": [{"measurement": "EC50", "result": "< 1000", "unit": "nM"}, {"measurement": "Max. Activity", "result": "+++ (+++ is >60%)"}]}, {"smiles": "CC1(C)C[C@H]2CCCNc3cccc(n3)S(=N)(=O)NC(=O)c3ccc(-n4ccc(OCCC5(C(F)(F)F)CC5)n4)nc3N1C2", "note": "(single isomer, unassigned) [Compound 271, 2-Imino-12,12-dimethyl-8-(3-{2-[1-(trifluoromethyl)cyclopropyl]ethoxy}-1H-pyrazol-1-yl)-2λ^6-thia-3,9,11,18,23-pentaazatetracyclo[17.3.1.111,14.05,10]tetracosa-1(23),5,7,9,19,21-hexaene-2,4-dione]", "values": [{"measurement": "EC50", "result": "< 1000", "unit": "nM"}, {"measurement": "Max. Activity", "result": "+++ (+++ is >60%)"}]}, {"smiles": "CC1(C)C[C@H]2CCCCNc3cccc(n3)S(=O)(=O)NC(=O)c3ccc(-n4ccc(OCCC5(C(F)(F)F)CC5)n4)nc3N1C2", "note": "(single isomer, unassigned) [Compound 30, 12,12-dimethyl-8-(3-{2-[1-(trifluoromethyl)cyclopropyl]ethoxy}-1H-pyrazol-1-yl)-2λ^6-thia-3,9,11,19,24-pentaazatetracyclo[18.3.1.111,14.05,10]pentacosa-1(23),5,7,9,20(24),21-hexaene-2,2,4-trione]", "values": [{"measurement": "EC50", "result": "< 1000", "unit": "nM"}, {"measurement": "Max. Activity", "result": "+++ (+++ is >60%)"}]}, {"smiles": "CC1(C)C[C@H]2CCn3ccc(n3)S(=O)(=O)NC(=O)c3ccc(-n4ccc(OCCCC5(C(F)(F)F)CC5)n4)nc3N1C2", "note": "(single isomer, unassigned) [Compound 279, 19,19-dimethyl-4-(3-{3-[1-(trifluoromethyl)cyclopropyl]propoxy}-1H-pyrazol-1-yl)-10λ^6-thia-1,3,9,14,21-pentaazatetracyclo[15.2.1.111,14.02,7]henicosa-2,4,6,11(21),12-pentaene-8,10,10-trione]", "values": [{"measurement": "EC50", "result": "< 1000", "unit": "nM"}, {"measurement": "Max. Activity", "result": "++ (++ is 30-60%)"}]}, {"smiles": "CC1(C)C[C@H]2CCCn3ccc(n3)S(=O)(=O)NC(=O)c3ccc(N4CCC(OCCC5(C(F)(F)F)CC5)C4=O)nc3N1C2", "note": "(stereo in doubt) [Compound 183, 20,20-Dimethyl-4-(2-oxo-3-{2-[1-(trifluoromethyl)cyclopropyl]ethoxy}pyrrolidin-1-yl)-10λ^6-thia-1,3,9,14,22-pentaazatetracyclo[16.2.1.111,14.02,7]docosa-2,4,6,11(22),12-pentaene-8,10,10-trione]", "values": [{"measurement": "EC50", "result": "< 1000", "unit": "nM"}, {"measurement": "Max. Activity", "result": "++ (++ is 30-60%)"}]}, {"smiles": "CC1(C)C[C@H]2CCCCn3ccc(n3)S(=O)(=O)NC(=O)c3ccc(-n4ccc(OCCC5(C(F)(F)F)CC5)n4)nc3N1C2", "note": "(single isomer, unassigned) [Compound 44, 21,21-dimethyl-4-(3-{2-[1-(trifluoromethyl)cyclopropyl]ethoxy}-1H-pyrazol-1-yl)-10λ^6-thia-1,3,9,14,23-pentaazatetracyclo[17.2.1.111,14.02,7]tricosa-2,4,6,11(23),12-pentaene-8,10,10-trione]", "values": [{"measurement": "EC50", "result": "> 3000", "unit": "nM"}, {"measurement": "Max. Activity", "result": "++ (++ is 30-60%)"}]}, {"smiles": "CC1(C)C[C@H]2CNc3cccc(n3)S(=O)(=O)NC(=O)c3ccc(-n4ccc(OCCC5(C(F)(F)F)CC5)n4)nc3N1C2", "note": "(single isomer, unassigned) [Compound 25, 6,6-dimethyl-10-(3-{2-[1-(trifluoromethyl)cyclopropyl]ethoxy}-1H-pyrazol-1-yl)-16λ^6-thia-2,7,9,15,21-pentaazatetracyclo[15.3.1.14,7.08,13]docosa-1(20),8,10,12,17(21),18-hexaene-14,16,16-trione]", "values": [{"measurement": "EC50", "result": "< 1000", "unit": "nM"}, {"measurement": "Max. Activity", "result": "++ (++ is 30-60%)"}]}, {"smiles": "CC1(C)CC[C@@H]2CCCNc3cccc(n3)S(=O)(=O)NC(=O)c3ccc(-n4ccc(OCCC5(C(F)(F)F)CC5)n4)nc3N21", "note": "[Compound 33, (15S)-12,12-Dimethyl-8-(3-{2-[1-(trifluoromethyl)cyclopropyl]ethoxy}-1H-pyrazol-1-yl)-2λ^6-thia-3,9,11,19,24-pentaazatetracyclo[18.3.1.05,10.011,15]tetracosa-1(23),5,7,9,20(24),21-hexaene-2,2,4-trione]", "values": [{"measurement": "EC50", "result": "> 3000", "unit": "nM"}, {"measurement": "Max. Activity", "result": "+ (+ is <30%)"}]}]}
